Like-named read-outs stand apart in the source and are kept apart here.
Legend:
Assay type in all cases: cell-based
[1] = test system: S. cerevisiae single-deletion yeast strains; assay: High-throughput 96-well screen of AF sensitivity of single-gene knockouts (CFU at start and after 8 hours)
Description: To identify genes critical to AF action, the AF sensitivity of single-gene knockouts identified through the common transcriptional analysis were identified. In the first pass-through, 56 testable genes were identified. This set was later expanded to include targets identified through phenotypic analysis and metabolomic profiling, for a total of 84 target genes (Table 2). The initial 56 targets were tested using a rapid high-throughput 96-well assay with AMB and MCZ to identify single-gene knockouts with elevated resistance to AFs (Table 2). Knockouts that were more resistant to at least one of the AFs were tested individually using the 24-well colony forming (CF) assay. Target genes selected after the initial 56 strains were assayed individually using the 24-well CF assay.
The first 56 S. cerevisiae strains were acquired from the deletion library and stored in 96-well plates in replicates of three. To start the assay, the plates were defrosted and 10 μl of stored cells were inoculated into 100 μl of fresh synthetic dextrose complete (SDC) media for 16 hours. These overnight cultures were diluted into a fresh 96-well plate with 100 μl of SDC to achieve an OD600 of approximately 0.2. Colony forming units (CFU) in each well were measured at the start of the assay and after 8 hours of incubation. The AF susceptibility of each strain was compared to that of wildtype. Strains with significant susceptibility differences from wildtype were assayed in 0.5 ml of SDC media using the 24-well plate CF assay described above.

[2] = test system: S. cerevisiae wildtype and deletion strains
S. cerevisiae = assay: Mitochondrial activity by MitoTracker Red fluorescence; conditions: drug added to glucose-incubated (SC, 2% glucose) S. cerevisiae
Description: It was next sought to assess the mitochondrial activity of AF-treated fungal cells. Yhe MitoTracker Red dye, which enters the mitochondrial matrix by utilizing the proton motive force and thus labels metabolically active mitochondria in viable cells was used (Arita et al., 2006; Tomas et al., 2011). Exponential phase S. cerevisiae were incubated in glucose-free synthetic complete (SC) media for 30 min and then switched to SC containing 2% glucose or non-fermentable acetate for 1.5 hours.
(§1) Overnight yeast cultures were diluted into the indicated media and grown to an OD600 of 0.2, at which point the AFs were added. Colony forming units (CFU) were measured by plating six serial dilutions onto YPD agar plates. Cells treated with MCZ were washed before serial dilution to stop growth inhibition associated with high concentrations of MCZ. CFU were counted after three days of incubation on agar plates. When indicated, thiourea (Fluka) was added 30 min prior to the addition of AFs. HPF (10 μM) (Invitrogen) and Mito Tracker (1 μM) (Invitrogen) dyes were added to PBS-washed cells at the indicated time points and incubated for 30 min prior to flow cytometry measurements, which were taken on the FACSCalibur (Becton-Dickinson). All experiments described in this section were conducted in 0.5 ml of SDC in 24-well plates incubated at 900 rpm and 37° C. for C. albicans and 30° C. and 300 rpm for S. cerevisiae. TUNEL assays were conducted as previously described (Ribeiro et al., 2006) and are described in detail in the TUNEL section of the Experimental Procedures.

[3] = test system: C. albicans wildtype and DNA repair mutants; assay: Fungicidal killing, CFU assay; conditions: C. albicans rad50/rad50 and rad52/rad52, 3 hours of drug exposure
Description: Overnight yeast cultures were diluted into the indicated media and grown to an OD600 of 0.2, at which point the AFs were added. Colony forming units (CFU) were measured by plating six serial dilutions onto YPD agar plates.
as §1

[4] = S. cerevisiae PAB103, SDH2 deletion
[5] = S. cerevisiae PAB107, NDE1 deletion
[6] = S. cerevisiae PAB112, MNE1 deletion
[7] = S. cerevisiae PAB113, FUM1 deletion
[8] = S. cerevisiae PAB114, TPK2 deletion
[9] = S. cerevisiae PAB119, CIT2 deletion
[10] = S. cerevisiae PAB121, SDH1 deletion
[11] = S. cerevisiae PAB122, TPK3 deletion
[12] = S. cerevisiae PAB124, TPK1 deletion
[13] = S. cerevisiae PAB132, CIT3 deletion
[14] = S. cerevisiae PAB135, NDI1 deletion
[15] = S. cerevisiae PAB145, CIT1 deletion

## Clc1ccc(COC(Cn2ccnc2)c2ccc(Cl)cc2Cl)c(Cl)c1 (stereo not drawn) [MCZ, miconazole]
[1]; S. cerevisiae PAB101, WT
  96 Well Screen, AF susceptibility vs wildtype: Normal
[1]; S. cerevisiae PAB102, HSP104 deletion
  96 Well Screen, AF susceptibility vs wildtype: Normal
[1]; [4]
  96 Well Screen, AF susceptibility vs wildtype: Resistant (″Resistant″ or ″Sensitive″ indicate at least a 5-fold CFU difference from wildtype at the final time point)
[1]; S. cerevisiae PAB104, FRE8 deletion
  96 Well Screen, AF susceptibility vs wildtype: Normal
[1]; S. cerevisiae PAB105, CHA4 deletion
  96 Well Screen, AF susceptibility vs wildtype: Normal
[1]; S. cerevisiae PAB106, FMS1 deletion
  96 Well Screen, AF susceptibility vs wildtype: Normal
[1]; [5]
  96 Well Screen, AF susceptibility vs wildtype: Resistant (″Resistant″ or ″Sensitive″ indicate at least a 5-fold CFU difference from wildtype at the final time point)
[1]; S. cerevisiae PAB108, ALD3 deletion
  96 Well Screen, AF susceptibility vs wildtype: Normal
[1]; S. cerevisiae PAB109, GAD1 deletion
  96 Well Screen, AF susceptibility vs wildtype: Normal
[1]; S. cerevisiae PAB110, PGM3 deletion
  96 Well Screen, AF susceptibility vs wildtype: Normal
[1]; S. cerevisiae PAB111, PYK2 deletion
  96 Well Screen, AF susceptibility vs wildtype: Resistant (″Resistant″ or ″Sensitive″ indicate at least a 5-fold CFU difference from wildtype at the final time point)
[1]; [6]
  96 Well Screen, AF susceptibility vs wildtype: Normal
[1]; [7]
  96 Well Screen, AF susceptibility vs wildtype: Resistant (″Resistant″ or ″Sensitive″ indicate at least a 5-fold CFU difference from wildtype at the final time point)
[1]; [8]
  96 Well Screen, AF susceptibility vs wildtype: Normal
[1]; S. cerevisiae PAB115, ATG29 deletion
  96 Well Screen, AF susceptibility vs wildtype: Normal
[1]; S. cerevisiae PAB116, ISU1 deletion
  96 Well Screen, AF susceptibility vs wildtype: Normal
[1]; S. cerevisiae PAB117, CYC7 deletion
  96 Well Screen, AF susceptibility vs wildtype: Normal
[1]; S. cerevisiae PAB118, ARN1 deletion
  96 Well Screen, AF susceptibility vs wildtype: Normal
[1]; [9]
  96 Well Screen, AF susceptibility vs wildtype: Resistant (″Resistant″ or ″Sensitive″ indicate at least a 5-fold CFU difference from wildtype at the final time point)
[1]; S. cerevisiae PAB120, HSP30 deletion
  96 Well Screen, AF susceptibility vs wildtype: Resistant (″Resistant″ or ″Sensitive″ indicate at least a 5-fold CFU difference from wildtype at the final time point)
[1]; [10]
  96 Well Screen, AF susceptibility vs wildtype: Resistant (″Resistant″ or ″Sensitive″ indicate at least a 5-fold CFU difference from wildtype at the final time point)
[1]; [11]
  96 Well Screen, AF susceptibility vs wildtype: Resistant (″Resistant″ or ″Sensitive″ indicate at least a 5-fold CFU difference from wildtype at the final time point)
[1]; S. cerevisiae PAB123, ISU2 deletion
  96 Well Screen, AF susceptibility vs wildtype: Normal
[1]; [12]
  96 Well Screen, AF susceptibility vs wildtype: Normal
[1]; S. cerevisiae PAB125, MID2 deletion
  96 Well Screen, AF susceptibility vs wildtype: Normal
[1]; S. cerevisiae PAB126, SSK1 deletion
  96 Well Screen, AF susceptibility vs wildtype: Normal
[1]; S. cerevisiae PAB127, HSP42 deletion
  96 Well Screen, AF susceptibility vs wildtype: Normal
[1]; S. cerevisiae PAB128, PIG1 deletion
  96 Well Screen, AF susceptibility vs wildtype: Normal
[1]; S. cerevisiae PAB130, UGA1 deletion
  96 Well Screen, AF susceptibility vs wildtype: Normal
[1]; S. cerevisiae PAB131, MTL1 deletion
  96 Well Screen, AF susceptibility vs wildtype: Normal
[1]; [13]
  96 Well Screen, AF susceptibility vs wildtype: Resistant (″Resistant″ or ″Sensitive″ indicate at least a 5-fold CFU difference from wildtype at the final time point)
[1]; S. cerevisiae PAB133, ZWF1 deletion
  96 Well Screen, AF susceptibility vs wildtype: Normal
[1]; S. cerevisiae PAB134, SUM1 deletion
  96 Well Screen, AF susceptibility vs wildtype: Normal
[1]; [14]
  96 Well Screen, AF susceptibility vs wildtype: Normal
[1]; S. cerevisiae PAB136, PGM2 deletion
  96 Well Screen, AF susceptibility vs wildtype: Resistant (″Resistant″ or ″Sensitive″ indicate at least a 5-fold CFU difference from wildtype at the final time point)
[1]; S. cerevisiae PAB137, HFD1 deletion
  96 Well Screen, AF susceptibility vs wildtype: Normal
[1]; S. cerevisiae PAB138, PUF2 deletion
  96 Well Screen, AF susceptibility vs wildtype: Normal
[1]; S. cerevisiae PAB139, TDH1 deletion
  96 Well Screen, AF susceptibility vs wildtype: Normal
[1]; S. cerevisiae PAB140, GUD1 deletion
  96 Well Screen, AF susceptibility vs wildtype: Sensitive (″Resistant″ or ″Sensitive″ indicate at least a 5-fold CFU difference from wildtype at the final time point)
[1]; S. cerevisiae PAB141, ATG15 deletion
  96 Well Screen, AF susceptibility vs wildtype: Normal
[1]; S. cerevisiae PAB142, TDH2 deletion
  96 Well Screen, AF susceptibility vs wildtype: Normal
[1]; S. cerevisiae PAB143, ATP1 deletion
  96 Well Screen, AF susceptibility vs wildtype: Normal
[1]; S. cerevisiae PAB144, UGA2 deletion
  96 Well Screen, AF susceptibility vs wildtype: Normal
[1]; [15]
  96 Well Screen, AF susceptibility vs wildtype: Resistant (″Resistant″ or ″Sensitive″ indicate at least a 5-fold CFU difference from wildtype at the final time point)
[1]; S. cerevisiae PAB146, SOLI deletion
  96 Well Screen, AF susceptibility vs wildtype: Normal
[1]; S. cerevisiae PAB147, PAN6 deletion
  96 Well Screen, AF susceptibility vs wildtype: Normal
[1]; S. cerevisiae PAB148, SOL4 deletion
  96 Well Screen, AF susceptibility vs wildtype: Normal
[1]; S. cerevisiae PAB149, YAK1 deletion
  96 Well Screen, AF susceptibility vs wildtype: Sensitive (″Resistant″ or ″Sensitive″ indicate at least a 5-fold CFU difference from wildtype at the final time point)
[1]; S. cerevisiae PAB150, PBS2 deletion
  96 Well Screen, AF susceptibility vs wildtype: Sensitive (″Resistant″ or ″Sensitive″ indicate at least a 5-fold CFU difference from wildtype at the final time point)
[1]; S. cerevisiae PAB152, GPD1 deletion
  96 Well Screen, AF susceptibility vs wildtype: Sensitive (″Resistant″ or ″Sensitive″ indicate at least a 5-fold CFU difference from wildtype at the final time point)
[1]; S. cerevisiae PAB153, SHO1 deletion
  96 Well Screen, AF susceptibility vs wildtype: Sensitive (″Resistant″ or ″Sensitive″ indicate at least a 5-fold CFU difference from wildtype at the final time point)
[1]; S. cerevisiae PAB154, FET3 deletion
  96 Well Screen, AF susceptibility vs wildtype: Sensitive (″Resistant″ or ″Sensitive″ indicate at least a 5-fold CFU difference from wildtype at the final time point)
[1]; S. cerevisiae PAB155, FBP1 deletion
  96 Well Screen, AF susceptibility vs wildtype: Sensitive (″Resistant″ or ″Sensitive″ indicate at least a 5-fold CFU difference from wildtype at the final time point)
[1]; S. cerevisiae PAB156, COX6 deletion
  96 Well Screen, AF susceptibility vs wildtype: Sensitive (″Resistant″ or ″Sensitive″ indicate at least a 5-fold CFU difference from wildtype at the final time point)
[2]; S. cerevisiae CIT1/CIT2 deletions in cit3 background
  additive resistance on deleting the remaining citrate synthases in the cit3 background: not observed
[2]; [4]
  CFU (24-well colony forming assay), AF susceptibility vs wildtype: Resistant (″Resistant″ or ″Sensitive″ indicate at least a 5-fold CFU difference from wildtype at the final time point)
[2]; [5]
  CFU (24-well colony forming assay), AF susceptibility vs wildtype: Resistant (″Resistant″ or ″Sensitive″ indicate at least a 5-fold CFU difference from wildtype at the final time point)
[2]; [6]
  CFU (24-well colony forming assay), AF susceptibility vs wildtype: Resistant (″Resistant″ or ″Sensitive″ indicate at least a 5-fold CFU difference from wildtype at the final time point)
[2]; [7]
  CFU (24-well colony forming assay), AF susceptibility vs wildtype: Resistant (″Resistant″ or ″Sensitive″ indicate at least a 5-fold CFU difference from wildtype at the final time point)
[2]; [8]
  CFU (24-well colony forming assay), AF susceptibility vs wildtype: Resistant (″Resistant″ or ″Sensitive″ indicate at least a 5-fold CFU difference from wildtype at the final time point)
[2]; [9]
  CFU (24-well colony forming assay), AF susceptibility vs wildtype: Resistant (″Resistant″ or ″Sensitive″ indicate at least a 5-fold CFU difference from wildtype at the final time point)
[2]; [10]
  CFU (24-well colony forming assay), AF susceptibility vs wildtype: Resistant (″Resistant″ or ″Sensitive″ indicate at least a 5-fold CFU difference from wildtype at the final time point)
[2]; [11]
  CFU (24-well colony forming assay), AF susceptibility vs wildtype: Resistant (″Resistant″ or ″Sensitive″ indicate at least a 5-fold CFU difference from wildtype at the final time point)
[2]; [12]
  CFU (24-well colony forming assay), AF susceptibility vs wildtype: Resistant (″Resistant″ or ″Sensitive″ indicate at least a 5-fold CFU difference from wildtype at the final time point)
[2]; [13]
  CFU (24-well colony forming assay), AF susceptibility vs wildtype: Resistant (″Resistant″ or ″Sensitive″ indicate at least a 5-fold CFU difference from wildtype at the final time point)
[2]; [14]
  CFU (24-well colony forming assay), AF susceptibility vs wildtype: Resistant (″Resistant″ or ″Sensitive″ indicate at least a 5-fold CFU difference from wildtype at the final time point)
[2]; [15]
  CFU (24-well colony forming assay), AF susceptibility vs wildtype: Resistant (″Resistant″ or ″Sensitive″ indicate at least a 5-fold CFU difference from wildtype at the final time point)
[2]; S. cerevisiae PAB168, RAS1 deletion
  CFU (24-well colony forming assay), AF susceptibility vs wildtype: Resistant (″Resistant″ or ″Sensitive″ indicate at least a 5-fold CFU difference from wildtype at the final time point)
[2]; S. cerevisiae PAB171, RAS2 deletion
  CFU (24-well colony forming assay), AF susceptibility vs wildtype: Resistant (″Resistant″ or ″Sensitive″ indicate at least a 5-fold CFU difference from wildtype at the final time point)
[2]; S. cerevisiae, 50 mM thiourea for 30 minutes prior to the addition of AF drugs
  reduction of killing at 3 hours by thiourea: ~10 fold
S. cerevisiae
  increase of MitoTracker fluorescence: 70 fold
[3]
  susceptibility of DSBR mutants compared to wildtype: particularly susceptible

From patent publication US20150366890A1, “COMPOSITIONS AND METHODS FOR TREATING FUNGAL INFECTIONS” (TRUSTEES OF BOSTON UNIVERSITY, priority 2013, published 2015)
